This is an account of results in PMC10065276, “Enhanced therapeutic window for antimicrobial Pept-ins by investigating their structure-activity relationship” (PLOS ONE, 2023).

Structures are written as SMILES. Positions of bridges follow the written chain, without caps; N, C: chain ends. Residues, ends and D or L forms follow the SMILES beside them.

The experiment deals with E. coli BL21. Particulars: BL21, 17 h. The procedure:
The peptide MIC was determined via the broth microdilution assay according to the EUCAST guideline, using 96-well polystyrene flat-bottom microtiter plates (BD Biosciences). Briefly, a single colony was inoculated in 5 mL Mueller-Hinton (MH) medium and incubated, while shaking at 37°C, to the end-exponential growth phase. The bacterial culture was subsequently diluted to 0.005 McFarland (McF) (~1.5x10^6 CFU/mL) with fresh MH medium. Two-fold serial peptide-dilutions were prepared in 50 μL MH medium resulting in a concentration range of 0.75 to 100 μg/mL (at least three wells for each concentration). Afterwards, 50 μL of the freshly diluted bacterial suspension (0.005 McF) was mixed with different peptide concentrations in the 96-well plate, performed in triplicates. The plate was ultimately incubated at 37°C overnight without shaking for 17 hours. The MIC was determined as the lowest peptide concentration without visible bacterial growth.
For `CC(C)C[C@H](NC(=O)CNC(=O)[C@H](CCCNC(=N)N)NC(=O)[C@H](CCCNC(=N)N)NC(=O)[C@@H]1CCCN1C(=O)[C@H](CCCNC(=N)N)NC(=O)[C@@H](NC(=O)[C@H](CC(C)C)NC(=O)[C@H](C)NC(=O)[C@H](CC(C)C)NC(=O)CNC(=O)[C@H](CC(C)C)NC(=O)CNC(=O)[C@H](CCCNC(=N)N)NC(=O)[C@@H](N)CCCNC(=N)N)C(C)C)C(=O)NCC(=O)N[C@@H](CC(C)C)C(=O)N[C@@H](C)C(=O)N[C@@H](CC(C)C)C(=O)N[C@H](C(=O)N[C@@H](CCCNC(=N)N)C(=O)O)C(C)C` [Peptide P2_GK_10] (H-RRGLGLALVRPRRGLGLALVR-OH), the “BL21 MIC” value came out at 12.50 µg/mL.

For the compound `CC(C)C[C@H](NC(=O)CNC(=O)[C@H](CCCNC(=N)N)NC(=O)[C@H](Cc1ccccc1)NC(=O)[C@H](C)NC(=O)[C@H](CCCNC(=N)N)NC(=O)[C@@H](NC(=O)[C@H](CC(C)C)NC(=O)[C@H](C)NC(=O)[C@H](CC(C)C)NC(=O)CNC(=O)[C@H](CC(C)C)NC(=O)CNC(=O)[C@@H](N)CCCNC(=N)N)C(C)C)C(=O)NCC(=O)N[C@@H](CC(C)C)C(=O)N[C@@H](C)C(=O)N[C@@H](CC(C)C)C(=O)N[C@H](C(=O)N[C@@H](C)C(=O)N[C@@H](CCCNC(=N)N)C(=O)O)C(C)C` [Peptide P2_4R_F] (H-RGLGLALVRAFRGLGLALVAR-OH), the “BL21 MIC” value was found to be 12.50 µg/mL.

Consider `CC(C)C[C@H](NC(=O)CNC(=O)[C@H](CCCNC(=N)N)NC(=O)[C@@H]1CCCN1C(=O)[C@H](CCCNC(=N)N)NC(=O)[C@H](CCCNC(=N)N)NC(=O)[C@@H]1CCCN1C(=O)[C@H](CC(C)C)NC(=O)[C@H](C)NC(=O)[C@H](CC(C)C)NC(=O)CNC(=O)[C@H](CC(C)C)NC(=O)CNC(=O)[C@@H](N)CCCNC(=N)N)C(=O)NCC(=O)N[C@@H](CC(C)C)C(=O)N[C@@H](C)C(=O)N[C@@H](CC(C)C)C(=O)N1CCC[C@H]1C(=O)N[C@@H](CCCNC(=N)N)C(=O)N[C@@H](CCCNC(=N)N)C(=O)O` [P2_zero_tango_4] (H-RGLGLALPRRPRGLGLALPRR-OH), for which the “BL21 MIC” value was more than 100.00 µg/mL.

For the compound `CC(C)C[C@H](NC(=O)CNC(=O)[C@H](CC(C)C)NC(=O)CNC(=O)[C@H](CCCNC(=N)N)NC(=O)[C@@H]1CCCN1C(=O)[C@H](CCCNC(=N)N)NC(=O)[C@H](CCCNC(=N)N)NC(=O)[C@@H](NC(=O)[C@H](CC(C)C)NC(=O)CNC(=O)[C@H](CC(C)C)NC(=O)CNC(=O)[C@H](CC(C)C)NC(=O)CNC(=O)[C@@H](N)CCCNC(=N)N)C(C)C)C(=O)NCC(=O)N[C@@H](CC(C)C)C(=O)N[C@H](C(=O)N[C@@H](CCCNC(=N)N)C(=O)N[C@@H](CCCNC(=N)N)C(=O)O)C(C)C` [A5G (P2)] (H-RGLGLGLVRRPRGLGLGLVRR-OH), the “BL21 MIC” value is 25.00 µg/mL.

As to `CC(C)C[C@H](NC(=O)CNC(=O)[C@H](CCCNC(=N)N)NC(=O)[C@@H]1CCCN1C(=O)[C@H](CCCNC(=N)N)NC(=O)[C@H](CCCNC(=N)N)NC(=O)[C@@H](NC(=O)[C@H](CC(C)C)NC(=O)[C@H](Cc1ccccc1)NC(=O)[C@H](CC(C)C)NC(=O)CNC(=O)[C@H](CC(C)C)NC(=O)CNC(=O)[C@@H](N)CCCNC(=N)N)C(C)C)C(=O)NCC(=O)N[C@@H](CC(C)C)C(=O)N[C@@H](Cc1ccccc1)C(=O)N[C@@H](CC(C)C)C(=O)N[C@H](C(=O)N[C@@H](CCCNC(=N)N)C(=O)N[C@@H](CCCNC(=N)N)C(=O)O)C(C)C` [A5F (P2)] (H-RGLGLFLVRRPRGLGLFLVRR-OH), the “BL21 MIC” value came to 12.50 µg/mL.

`CC(C)C[C@H](NC(=O)CNC(=O)[C@@H](N)CCCNC(=N)N)C(=O)NCC(=O)N[C@@H](CC(C)C)C(=O)N[C@@H](C)C(=O)N[C@@H](CC(C)C)C(=O)N[C@H](C(=O)N[C@@H](CCCNC(=N)N)C(=O)N[C@@H](CCCNC(=N)N)C(=O)N1CCC[C@H]1C(=O)N[C@@H](CCCNC(=N)N)C(=O)NCC(=O)N[C@@H](C)C(=O)NCC(=O)N[C@@H](CC(C)C)C(=O)N[C@@H](C)C(=O)N[C@@H](CC(C)C)C(=O)N[C@H](C(=O)N[C@@H](CCCNC(=N)N)C(=O)N[C@@H](CCCNC(=N)N)C(=O)O)C(C)C)C(C)C` [Peptide P2_L14A] (H-RGLGLALVRRPRGAGLALVRR-OH): the “BL21 MIC” value was found to be 25.00 µg/mL.

With `CC(C)C[C@H](NC(=O)CNC(=O)[C@H](CCCNC(=N)N)NC(=O)[C@@H]1CCCN1C(=O)[C@H](CCCNC(=N)N)NC(=O)[C@H](CCCNC(=N)N)NC(=O)[C@H](CO)NC(=O)[C@H](CC(C)C)NC(=O)[C@H](C)NC(=O)[C@H](CC(C)C)NC(=O)CNC(=O)[C@H](CC(C)C)NC(=O)CNC(=O)[C@@H](N)CCCNC(=N)N)C(=O)NCC(=O)N[C@@H](CC(C)C)C(=O)N[C@@H](C)C(=O)N[C@@H](CC(C)C)C(=O)N[C@@H](CO)C(=O)N[C@@H](CCCNC(=N)N)C(=O)N[C@@H](CCCNC(=N)N)C(=O)O` [V7S (P2)] (H-RGLGLALSRRPRGLGLALSRR-OH), the “BL21 MIC” value is 100.00 µg/mL.

For the compound `CC(C)C[C@H](NC(=O)CNC(=O)[C@H](CCCNC(=N)N)NC(=O)[C@@H]1CSSC[C@H](NC(=O)[C@@H](NC(=O)[C@H](CC(C)C)NC(=O)[C@H](C)NC(=O)[C@H](CC(C)C)NC(=O)CNC(=O)[C@H](CC(C)C)NC(=O)CNC(=O)[C@@H](N)CCCNC(=N)N)C(C)C)C(=O)N[C@@H](CCCNC(=N)N)C(=O)N[C@@H](CCCNC(=N)N)C(=O)N[C@@H]([C@@H](C)O)C(=O)NCC(=O)N1)C(=O)NCC(=O)N[C@@H](CC(C)C)C(=O)N[C@@H](C)C(=O)N[C@@H](CC(C)C)C(=O)N[C@H](C(=O)N[C@@H](CCCNC(=N)N)C(=O)N[C@@H](CCCNC(=N)N)C(=O)O)C(C)C` [Peptide P2_H12_TG] (H-RGLGLALVCRRTGCRGLGLALVRR-OH; disulfide 9-14), the “BL21 MIC, SS bond” value is 6.50 µg/mL and the “BL21 MIC, no SS bond” value was 6.25 µg/mL.

Take `CC[C@H](C)[C@H](NC(=O)CNC(=O)[C@H](CC(C)C)NC(=O)[C@H](CCCNC(=N)N)NC(=O)[C@@H]1CCCN1C(=O)[C@H](CCCNC(=N)N)NC(=O)[C@H](CC(C)C)NC(=O)[C@H](C)NC(=O)[C@@H](NC(=O)[C@H](C)NC(=O)[C@@H](NC(=O)CNC(=O)[C@H](CC(C)C)NC(=O)[C@@H](N)CCCNC(=N)N)[C@@H](C)CC)C(C)C)C(=O)N[C@@H](C)C(=O)N[C@H](C(=O)N[C@@H](C)C(=O)N[C@@H](CC(C)C)C(=O)N[C@@H](CCCNC(=N)N)C(=O)O)C(C)C` [Peptide P33_4R_1] (H-RLGIAVALRPRLGIAVALR-OH): the “BL21 MIC” value worked out at 6.25 µg/mL.

As for `CC(C)C[C@H](NC(=O)CNC(=O)[C@H](CCCNC(=N)N)NC(=O)[C@@H]1CSSC[C@H](NC(=O)[C@@H](NC(=O)[C@H](CC(C)C)NC(=O)[C@H](C)NC(=O)[C@H](CC(C)C)NC(=O)CNC(=O)[C@H](CC(C)C)NC(=O)CNC(=O)[C@@H](N)CCCNC(=N)N)C(C)C)C(=O)N[C@@H](CCCNC(=N)N)C(=O)N[C@@H](CCCNC(=N)N)C(=O)N[C@@H](CCCNC(=N)N)C(=O)N[C@@H](Cc2ccccc2)C(=O)N1)C(=O)NCC(=O)N[C@@H](CC(C)C)C(=O)N[C@@H](C)C(=O)N[C@@H](CC(C)C)C(=O)N[C@H](C(=O)N[C@@H](CCCNC(=N)N)C(=O)N[C@@H](CCCNC(=N)N)C(=O)O)C(C)C` [Peptide P2_H12_FC] (H-RGLGLALVCRRRFCRGLGLALVRR-OH; disulfide 9-14), the “BL21 MIC, SS bond” value is 3.50 µg/mL and the “BL21 MIC, no SS bond” value is 6.25 µg/mL.
